In ChEMBL document CHEMBL5338739, “Discovery of Dual Lysine Methyltransferase G9a and EZH2 Inhibitors with In Vivo Efficacy against Malignant Rhabdoid Tumor” (J Med Chem, 2023):
Activity calls are given as the source filed them. No cut-off for these calls is given here.

Tests used:
[1] = Half life in Sprague-Dawley rat at 10 mg/kg, iv administered for 12 hrs by HPLC analysis; assay type: ADME, organism-based; settings: in vivo
[2] = Toxicity in BALB/c nude mouse xenografted with human RD cells assessed as effect on heart viscera index at 10 to 20 mg/kg, ip administered for 5 consecutive days followed by 2 rest days for 3 weeks; assay type: organism-based; settings: in vivo, 504 h, dose 10-20 mg/kg
[3] = target: T1, Histone-lysine N-methyltransferase EHMT2 (Homo sapiens) (UniProt Q96KQ7); assay: Binding affinity to recombinant EHMT2 G9a in human RD cells assessed as decrease in […] incubated for 1 hr by DARTS analysis; assay type: cell-based; settings: dose 5-20 µM
T1 sequence (whole entry): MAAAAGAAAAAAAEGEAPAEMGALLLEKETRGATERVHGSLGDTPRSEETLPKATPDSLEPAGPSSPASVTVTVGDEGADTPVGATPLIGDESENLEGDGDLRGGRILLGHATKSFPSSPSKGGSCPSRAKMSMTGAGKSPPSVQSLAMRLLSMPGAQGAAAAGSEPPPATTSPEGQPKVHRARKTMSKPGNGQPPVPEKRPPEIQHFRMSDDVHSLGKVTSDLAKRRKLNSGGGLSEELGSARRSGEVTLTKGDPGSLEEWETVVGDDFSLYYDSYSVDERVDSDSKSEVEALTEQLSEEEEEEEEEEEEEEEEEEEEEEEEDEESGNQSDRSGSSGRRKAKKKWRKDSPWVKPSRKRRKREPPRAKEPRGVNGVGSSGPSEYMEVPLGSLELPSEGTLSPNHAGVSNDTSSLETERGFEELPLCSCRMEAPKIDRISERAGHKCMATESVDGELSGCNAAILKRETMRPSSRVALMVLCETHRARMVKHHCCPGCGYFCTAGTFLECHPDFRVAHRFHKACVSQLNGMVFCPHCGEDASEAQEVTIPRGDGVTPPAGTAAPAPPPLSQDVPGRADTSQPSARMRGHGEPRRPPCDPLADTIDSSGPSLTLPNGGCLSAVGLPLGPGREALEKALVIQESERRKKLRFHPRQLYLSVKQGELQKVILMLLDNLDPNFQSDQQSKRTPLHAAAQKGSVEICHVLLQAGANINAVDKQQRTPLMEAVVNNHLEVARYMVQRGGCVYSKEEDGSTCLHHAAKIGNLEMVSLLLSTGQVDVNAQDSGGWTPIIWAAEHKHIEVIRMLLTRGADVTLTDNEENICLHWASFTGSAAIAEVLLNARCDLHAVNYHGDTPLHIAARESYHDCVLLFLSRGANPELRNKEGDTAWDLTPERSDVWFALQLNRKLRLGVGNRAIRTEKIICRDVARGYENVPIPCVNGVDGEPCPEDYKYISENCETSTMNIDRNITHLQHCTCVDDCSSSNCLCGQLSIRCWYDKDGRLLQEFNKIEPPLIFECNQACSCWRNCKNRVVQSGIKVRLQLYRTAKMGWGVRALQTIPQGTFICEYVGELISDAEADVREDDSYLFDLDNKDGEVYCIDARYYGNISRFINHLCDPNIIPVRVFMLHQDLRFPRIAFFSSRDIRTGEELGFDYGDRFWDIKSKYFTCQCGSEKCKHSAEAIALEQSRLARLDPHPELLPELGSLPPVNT

[4] = AUC (0 to infinity) in Sprague-Dawley rat at 10 mg/kg, iv administered for 12 hrs by HPLC analysis; assay type: ADME, organism-based; parameters: time 12 hrs, dose 10 mg/kg, route iv; settings: in vivo
[5] = system: RD; assay: Downregulation of H3K4me2 expression in human RD cells at 5 uM incubated for 6 days by immunoblotting analysis; assay type: functional, cell-based; settings: time 6.0 day
[6] = AUC (0 to infinity) in Sprague-Dawley rat at 30 mg/kg, po administered for 24 hrs by HPLC analysis; assay type: ADME, organism-based; parameters: time 24 hrs, dose 30 mg/kg, route po; settings: in vivo
[7] = Cytotoxicity against human MCF-10A cells assessed as reduction in cell viability incubated for 72 hrs by MTT assay; assay type: toxicity, cell-based
[8] = system: RD; assay: Downregulation of H3K79me2 expression in human RD cells at 5 uM incubated for 6 days by immunoblotting analysis; assay type: functional, cell-based; settings: time 6.0 day
[9] = system: SW982; assay: Cytotoxicity against human SW982 cells assessed as reduction in cell viability incubated for 72 hrs by MTT assay; assay type: functional
[10] = system: Mus musculus; assay: Downregulation of H3K27me3 expression in tumor tissue of BALB/c nude mouse xenografted with human RD cells at 20 mg/kg, ip administered for 5 consecutive days followed by 2 rest days for 3 weeks by Western blotting analysis; assay type: functional, organism-based
[11] = target: Histone-lysine N-methyltransferase SETDB1 (Homo sapiens) (UniProt Q15047); assay: Inhibition of SETDB1 (unknown origin) using SAM as substrate at 10 uM by time-resolved fluorescence assay relative to control
[12] = target: T2, Histone-lysine N-methyltransferase EZH2 (Homo sapiens, UniProt Q15910); assay: Binding affinity to EZH2 in human RD cells assessed as increase in protein thermal stability at 5 uM incubated for 4 hrs by CETSA based Western blot analysis; assay type: cell-based
T2 sequence (Q15910 whole entry, looked up): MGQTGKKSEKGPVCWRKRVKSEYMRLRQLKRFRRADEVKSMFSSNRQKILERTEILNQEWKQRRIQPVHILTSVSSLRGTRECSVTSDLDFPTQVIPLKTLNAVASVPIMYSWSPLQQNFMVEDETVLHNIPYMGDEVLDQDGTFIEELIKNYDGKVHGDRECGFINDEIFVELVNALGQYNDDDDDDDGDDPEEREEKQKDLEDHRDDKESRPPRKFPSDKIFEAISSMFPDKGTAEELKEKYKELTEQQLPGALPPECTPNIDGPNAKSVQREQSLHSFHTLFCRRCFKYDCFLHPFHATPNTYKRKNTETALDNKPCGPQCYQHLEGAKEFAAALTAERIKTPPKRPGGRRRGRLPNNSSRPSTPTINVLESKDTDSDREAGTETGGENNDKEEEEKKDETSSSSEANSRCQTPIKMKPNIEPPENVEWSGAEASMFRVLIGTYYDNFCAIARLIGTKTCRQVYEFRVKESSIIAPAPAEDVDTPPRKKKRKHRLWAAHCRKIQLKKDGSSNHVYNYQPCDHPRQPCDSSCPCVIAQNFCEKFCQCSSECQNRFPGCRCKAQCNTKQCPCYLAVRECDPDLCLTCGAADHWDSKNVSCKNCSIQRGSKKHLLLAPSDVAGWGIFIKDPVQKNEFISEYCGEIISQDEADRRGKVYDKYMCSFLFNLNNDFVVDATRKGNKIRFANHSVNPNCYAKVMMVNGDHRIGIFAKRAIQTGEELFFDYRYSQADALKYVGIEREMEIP

[13] = Tmax in Sprague-Dawley rat at 30 mg/kg, po administered for 24 hrs by HPLC analysis; assay type: ADME, organism-based; settings: in vivo
[14] = Toxicity in BALB/c nude mouse xenografted with human RD cells assessed as effect on spleen viscera index at 10 to 20 mg/kg, ip administered for 5 consecutive days followed by 2 rest days for 3 weeks; assay type: organism-based; settings: in vivo, 504 h, dose 10-20 mg/kg
[15] = AUC (0 to 24 hrs) in Sprague-Dawley rat at 30 mg/kg, po administered for 24 hrs by HPLC analysis; assay type: ADME, organism-based; parameters: time 24 hrs, dose 30 mg/kg, route po; settings: in vivo
[16] = target: T2, Histone-lysine N-methyltransferase EZH2; assay: Inhibition of human EZH2 using SAM as substrate at 10 uM by time-resolved fluorescence assay relative to control
[17] = system: RD; assay: Downregulation of H3K27me3 expression in human RD cells at 5 uM incubated for 6 days by Western blotting analysis; assay type: functional, cell-based; settings: time 6.0 day
[18] = system: RD; assay: Downregulation of H3K9me2 expression in human RD cells at 5 uM incubated for 6 days by Western blotting analysis; assay type: functional, cell-based; settings: time 6.0 day
[19] = Toxicity in BALB/c nude mouse xenografted with human RD cells assessed as mortality at 10 to 20 mg/kg, ip administered for 5 consecutive days followed by 2 rest days for 3 weeks; assay type: organism-based; settings: in vivo, 504 h, dose 10-20 mg/kg
[20] = system: RD; assay: Antiproliferative activity against EZH2 and G9a knockdown human RD cells assessed as reduction in clone formation rate at 5 uM for 1 to 2 weeks with fresh medium replacement for every 2 to 3 days by crystal violet staining based microscopic analysis; assay type: functional, cell-based; settings: time 1-2 weeks
[21] = Toxicity in BALB/c nude mouse xenografted with human RD cells assessed as body weight fluctuations at 10 to 20 mg/kg, ip administered for 5 consecutive days followed by 2 rest days for 3 weeks; assay type: organism-based; settings: in vivo, 504 h, dose 10-20 mg/kg
[22] = system: RD; assay: Cytotoxicity against human RD cells assessed as reduction in cell viability incubated for 72 hrs by MTT assay; assay type: functional
[23] = Plasma protein binding in Kunming mouse by equilibrium dialysis method; assay type: ADME, cell-free; settings: read-out: PPB (converted)
[24] = target: Histone-lysine N-methyltransferase, H3 lysine-79 specific (Homo sapiens) (UniProt Q8TEK3); assay: Inhibition of […] (unknown origin) using SAM as substrate at 10 uM by time-resolved fluorescence assay relative to control
Histone-lysine N-methyltransferase, H3 lysine-79 specific (Homo sapiens), sequence (Q8TEK3 whole entry, looked up): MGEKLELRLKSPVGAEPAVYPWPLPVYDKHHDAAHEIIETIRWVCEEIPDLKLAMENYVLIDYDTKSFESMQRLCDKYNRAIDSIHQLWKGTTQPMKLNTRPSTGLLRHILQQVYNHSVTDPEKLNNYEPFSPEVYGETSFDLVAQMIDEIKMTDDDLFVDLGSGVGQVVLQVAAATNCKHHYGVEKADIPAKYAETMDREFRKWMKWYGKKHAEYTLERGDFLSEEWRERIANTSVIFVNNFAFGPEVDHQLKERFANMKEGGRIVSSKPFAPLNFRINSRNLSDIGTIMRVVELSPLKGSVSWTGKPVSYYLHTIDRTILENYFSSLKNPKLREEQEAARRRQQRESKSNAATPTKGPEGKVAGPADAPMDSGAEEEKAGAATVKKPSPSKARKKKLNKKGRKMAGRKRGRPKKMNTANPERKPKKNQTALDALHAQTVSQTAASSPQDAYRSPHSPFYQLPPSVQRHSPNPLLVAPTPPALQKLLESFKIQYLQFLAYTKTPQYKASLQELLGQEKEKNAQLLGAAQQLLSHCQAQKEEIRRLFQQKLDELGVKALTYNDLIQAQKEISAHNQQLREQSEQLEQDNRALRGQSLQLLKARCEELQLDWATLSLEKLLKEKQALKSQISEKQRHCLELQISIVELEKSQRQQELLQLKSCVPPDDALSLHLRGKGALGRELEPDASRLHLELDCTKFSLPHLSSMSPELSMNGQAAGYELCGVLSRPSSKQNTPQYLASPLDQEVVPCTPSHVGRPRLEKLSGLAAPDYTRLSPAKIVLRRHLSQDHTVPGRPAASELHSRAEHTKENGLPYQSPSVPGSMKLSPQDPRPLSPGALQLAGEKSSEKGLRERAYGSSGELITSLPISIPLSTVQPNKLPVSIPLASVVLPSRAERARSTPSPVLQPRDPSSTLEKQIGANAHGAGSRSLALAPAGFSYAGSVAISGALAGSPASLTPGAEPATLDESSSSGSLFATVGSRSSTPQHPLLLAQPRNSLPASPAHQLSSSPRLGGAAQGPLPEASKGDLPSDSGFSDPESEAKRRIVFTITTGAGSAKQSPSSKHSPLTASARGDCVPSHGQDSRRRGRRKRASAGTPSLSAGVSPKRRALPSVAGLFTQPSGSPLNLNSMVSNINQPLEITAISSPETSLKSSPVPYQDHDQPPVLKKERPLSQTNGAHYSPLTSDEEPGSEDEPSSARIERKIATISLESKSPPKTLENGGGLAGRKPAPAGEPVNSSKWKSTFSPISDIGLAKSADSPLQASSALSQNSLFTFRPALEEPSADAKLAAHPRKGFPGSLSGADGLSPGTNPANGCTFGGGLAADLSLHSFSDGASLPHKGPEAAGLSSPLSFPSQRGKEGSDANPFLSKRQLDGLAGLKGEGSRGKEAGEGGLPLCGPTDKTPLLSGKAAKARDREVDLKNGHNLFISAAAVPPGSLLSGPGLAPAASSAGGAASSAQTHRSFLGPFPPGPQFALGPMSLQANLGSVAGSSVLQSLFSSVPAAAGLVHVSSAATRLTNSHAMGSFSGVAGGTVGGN

For `COc1cc2c(NCc3c(C)cc(C)[nH]c3=O)nc(N3CCC(F)(F)CC3)nc2cc1OCCCN1CCCC1`, the half-life [1] was 3.47 h, the Activity [2] was “Non-Toxic” and the Activity [3] was “Dose-Dependent Effect”. The AUC [4] was 2476.02 ng·h/mL, the Activity [5] was “inactive” and the AUC(0-inf) [6] was 11400 ng·h/mL. The CC50 at 72 h [7] was > 100 µM, the Activity [8] was “inactive” and the CC50 [9] was 19.9 µM. For the same compound, the Activity [10] was “Active”, the inhibition [11] was 7.79% and the Activity [12] was “Active”. For the same compound, the Tmax [13] was 0.69 h, the Activity [14] was “Non-Toxic” and the AUC(0-t) at 24 h [15] was 5350 ng·h/mL. The inhibition [16] was 98.3%, the Activity [17] was “Active” and the Activity [18] was “Active”. The Activity [19] was “Non-Toxic”, the Activity [20] was “inactive” and the Activity [21] was “Non-Toxic”. The CC50 [22] was 19.6 µM, the fraction unbound [23] was 0.186 and the inhibition [24] was -5.87%.
